According to BindingDB's records for patent US11453697 (Merck Sharp & Dohme, 2022):

Biological target: Stimulator of interferon genes protein [1-379,R71H,G230A,H232R,R293Q] (Homo sapiens, UniProt Q86WV6, G230A/H232R/R293Q/R71H)
Experiment: 3H-cGAMP Filtration Binding Assay (HAQ STING)
Method: Compound and membrane then preincubated for 60 min at RT to allow compound binding to equilibrate. Following equilibration, 8 nM of [3H] c-GAMP ligand was prepared by diluting into assay buffer, and 50 uL of this working stock was then manually added to each well of the assay plate. […] The filter plates were then dried at 55° C. for 30 min using a pressurized VWR oven before 30 uL of Ultima GoldF scintillate was added to each well. Tritium levels for each reaction well were then measured using a PerkinElmer TopCount plate reader.

Sequence of Stimulator of interferon genes protein [1-379,R71H,G230A,H232R,R293Q] (Q86WV6 whole entry R71H/G230A/H232R/R293Q, looked up): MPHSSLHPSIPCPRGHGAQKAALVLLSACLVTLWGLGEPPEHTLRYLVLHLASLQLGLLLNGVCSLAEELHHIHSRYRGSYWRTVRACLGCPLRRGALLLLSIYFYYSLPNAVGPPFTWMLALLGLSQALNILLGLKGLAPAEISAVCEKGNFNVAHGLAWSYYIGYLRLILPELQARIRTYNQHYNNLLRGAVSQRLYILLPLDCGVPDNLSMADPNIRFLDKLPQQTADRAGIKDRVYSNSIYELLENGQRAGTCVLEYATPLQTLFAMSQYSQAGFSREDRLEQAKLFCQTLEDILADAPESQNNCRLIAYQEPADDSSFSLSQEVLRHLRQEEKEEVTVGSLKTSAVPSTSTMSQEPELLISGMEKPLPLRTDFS

Row | Structure (SMILES) | EC50 [nM]
1 | Nc1nc2c(ncn2[C@@H]2O[C@@H]3COP(=O)(S)OC4[C@@H](COP(=O)(S)O[C@H]2C3)O[C@@H](n2nnc3c(N)ncnc32)[C@H]4F)c(=O)[nH]1 (some centres not stated) [US11453697, Example 133] | 61.4
2 | Nc1nc2c(ncn2[C@@H]2O[C@@H]3COP(=O)(S)O[C@H]4[C@H](F)[C@H](n5cnc6c(N)ncnc65)O[C@@H]4COP(=O)(O)O[C@@H]2[C@@H]3F)c(=O)[nH]1 (some centres not stated) [US11453697, Example 143] | 1.05
